Tests used:
Test in all cases: relative viability (nuclei count vs DMSO), 5 days (fraction); higher = more cells survive
GW-2580 + Crizotinib = compound: COC1=CC=C(C=C1)COC2=C(C=C(C=C2)CC3=CN=C(N=C3N)N)OC [GW-2580] + C[C@@H](Oc1cc(-c2cnn(C3CCNCC3)c2)cnc1N)c1c(Cl)ccc(F)c1Cl [Crizotinib] (partner 1 µM)
How it was run: (§1)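 The day after seeding in 1536-well plates, lung cancer cell lines were treated by pin tool with a single drug, or with a fixed anchor-drug dose together with five library-drug doses (not always all listed) in √10 steps. After 5 days, a combined fix-and-stain solution (final 0.05% Triton X-100, 1% formaldehyde, 1 ug/ml Hoechst) was added. Nuclei counted on 4× images gave relative viability as treated counts over vehicle counts, reported as the median of duplicate plates.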

GW-2580 + Linsitinib = compound: COC1=CC=C(C=C1)COC2=C(C=C(C=C2)CC3=CN=C(N=C3N)N)OC [GW-2580] + C[C@]1(O)C[C@@H](c2nc(-c3ccc4ccc(-c5ccccc5)nc4c3)c3c(N)nccn32)C1 [Linsitinib] (partner 1 µM)
How it was run: as §1

Fedratinib + Palbociclib = compound: Cc1cnc(Nc2ccc(OCCN3CCCC3)cc2)nc1Nc1cccc(S(=O)(=O)NC(C)(C)C)c1 [Fedratinib] + CC(=O)c1c(C)c2cnc(Nc3ccc(N4CCNCC4)cn3)nc2n(C2CCCC2)c1=O [Palbociclib] (partner 0.5 µM)
How it was run: as §1

Fedratinib + Navitoclax = compound: Cc1cnc(Nc2ccc(OCCN3CCCC3)cc2)nc1Nc1cccc(S(=O)(=O)NC(C)(C)C)c1 [Fedratinib] + CC1(C)CCC(c2ccc(Cl)cc2)=C(CN2CCN(c3ccc(C(=O)NS(=O)(=O)c4ccc(N[C@H](CCN5CCOCC5)CSc5ccccc5)c(S(=O)(=O)C(F)(F)F)c4)cc3)CC2)C1 [Navitoclax] (partner 0.5 µM)
How it was run: as §1

Fedratinib + Decitabine = compound: Cc1cnc(Nc2ccc(OCCN3CCCC3)cc2)nc1Nc1cccc(S(=O)(=O)NC(C)(C)C)c1 [Fedratinib] + Nc1ncn([C@H]2C[C@H](O)[C@@H](CO)O2)c(=O)n1 [Decitabine] (partner 2 µM)
How it was run: as §1

| Cell Line | relative viability (GW-2580 + Crizotinib; first compound 0.08 µM) | relative viability (GW-2580 + Crizotinib; first compound 0.8 µM) | relative viability (GW-2580 + Crizotinib; first compound 2.53 µM) | relative viability (GW-2580 + Crizotinib; first compound 8 µM) | relative viability (GW-2580 + Linsitinib; first compound 0.08 µM) | relative viability (GW-2580 + Linsitinib; first compound 0.8 µM) | relative viability (GW-2580 + Linsitinib; first compound 2.53 µM) | relative viability (GW-2580 + Linsitinib; first compound 8 µM) | relative viability (Fedratinib + Palbociclib; first compound 0.1 µM) | relative viability (Fedratinib + Palbociclib; first compound 0.3162 µM) | relative viability (Fedratinib + Palbociclib; first compound 1 µM) | relative viability (Fedratinib + Navitoclax; first compound 0.1 µM) | relative viability (Fedratinib + Navitoclax; first compound 0.3162 µM) | relative viability (Fedratinib + Navitoclax; first compound 1 µM) | relative viability (Fedratinib + Decitabine; first compound 0.1 µM) | relative viability (Fedratinib + Decitabine; first compound 0.3162 µM) | relative viability (Fedratinib + Decitabine; first compound 1 µM) |
| --- | --- | --- | --- | --- | --- | --- | --- | --- | --- | --- | --- | --- | --- | --- | --- | --- | --- |
| 201T | 1.04 | 1.06 | 1.07 | 0.993 | 1.06 | 1.14 | 1.14 | 1.06 | 0.362 | 0.342 | 0.33 | 1.16 | 1.18 | 1.21 | 0.78 | 0.855 | 0.877 |
| A549 | 0.722 | 0.878 | 0.737 | 0.543 | 0.678 | 0.701 | 0.501 | 0.602 |  |  |  | 1.55 | 1.2 | 1.1 | 0.121 | 0.302 | 0.257 |
| A-427 | 0.926 | 1.07 | 0.785 | 0.663 | 1.18 | 1.16 | 1.01 | 1.08 | 0.505 | 0.492 | 0.487 | 0.973 | 0.905 | 0.933 | 0.596 | 0.561 | 0.524 |
| ABC-1 | 1.1 | 1.3 | 0.901 | 0.783 | 0.791 | 0.816 | 0.883 | 0.718 | 0.691 | 0.704 | 0.609 |  |  |  | 0.976 | 1.09 | 1.01 |
| BEN | 0.937 | 1 | 0.785 | 0.958 | 1.08 | 1.04 | 0.816 | 0.93 | 0.473 | 0.429 | 0.471 | 0.0815 | 0.055 | 0.0392 | 0.582 | 0.693 | 0.608 |
| CAL-12T | 0.632 |  | 0.59 | 0.577 | 0.985 | 0.815 | 0.917 | 0.762 | 0.295 | 0.411 | 0.446 | 1 | 1.15 | 1.13 |  |  |  |
| COR-L23 | 0.808 | 0.684 | 0.549 | 0.562 | 0.987 | 1.2 | 0.946 | 1.02 | 0.303 | 0.26 | 0.131 | 0.936 | 1.06 | 0.899 | 0.4 | 0.416 | 0.177 |
| COR-L 105 | 0.782 | 0.827 | 0.787 | 0.677 | 1.03 | 0.807 | 0.929 | 1.01 | 0.393 | 0.41 | 0.405 | 0.568 | 0.657 | 0.689 | 0.669 | 0.611 | 0.511 |
| Calu-6 | 0.85 | 0.857 | 0.769 | 0.674 | 1.11 | 0.938 | 0.913 | 1.02 |  |  |  | 0.828 | 0.795 | 0.727 |  |  |  |
| ChaGo-K-1 | 1.08 | 1.21 | 1.18 | 1.07 |  |  |  |  | 0.966 | 0.814 | 0.961 | 0.786 | 1.11 | 0.425 | 0.488 | 0.513 | 0.544 |
| EBC-1 | 0.205 | 0.163 | 0.19 | 0.164 | 1.27 | 0.991 | 0.871 | 0.743 |  |  |  | 0.28 | 0.282 | 0.155 |  |  |  |
| EKVX | 1.09 | 1.52 | 0.979 | 0.935 | 0.983 | 1.18 | 0.884 | 1.04 | 0.391 | 0.403 | 0.414 | 1.08 | 0.918 | 0.944 | 0.315 | 0.37 | 0.363 |
| EMC-BAC-2 | 0.779 | 0.771 | 0.75 | 0.803 | 0.839 | 0.876 | 0.727 | 0.875 | 0.533 | 0.503 | 0.489 | 1.19 | 1.15 | 1.11 | 1.01 | 1.07 | 0.988 |
| EPLC-272H | 0.831 | 1.13 | 0.954 | 0.904 | 1.05 | 1.38 | 1.24 | 1.14 | 0.318 | 0.339 | 0.365 | 1.14 | 0.936 | 1.09 | 0.312 | 0.393 | 0.344 |
| H3255 | 0.837 | 0.963 | 0.744 | 0.914 | 0.98 | 1.03 | 1.08 | 0.796 | 0.277 | 0.303 | 0.318 | 0.533 | 0.385 | 0.384 | 0.607 | 0.685 | 0.507 |
| HARA | 1.15 | 1.05 | 1.12 | 0.939 | 1.09 | 1.06 | 1.08 | 0.845 | 0.261 | 0.301 | 0.214 | 1.17 | 1.12 | 1.15 | 0.485 | 0.551 | 0.427 |
| HCC-15 | 0.961 | 0.956 | 0.775 | 0.751 | 0.989 | 1.02 | 0.834 | 0.785 | 0.664 | 0.708 | 0.636 | 0.654 | 0.635 | 0.487 | 0.507 | 0.738 | 0.533 |
| HCC-44 | 0.899 | 0.843 | 0.751 | 0.839 | 0.736 | 0.759 | 0.628 | 0.687 | 0.95 | 0.968 | 0.983 | 0.914 | 0.874 | 1.04 | 0.929 | 0.947 | 0.949 |
| HCC-78 | 0.331 | 0.384 | 0.287 | 0.297 | 0.541 | 0.574 | 0.371 | 0.486 | 0.47 | 0.443 | 0.476 | 0.676 |  | 0.834 | 0.693 | 0.73 | 0.705 |
| HCC-366 | 0.618 | 0.581 | 0.334 | 0.509 | 0.51 | 0.678 | 0.496 | 0.882 | 0.603 | 0.355 | 0.315 | 1.22 | 1.04 | 1.07 | 0.29 | 0.307 | 0.366 |

— the supplement of paper PMC10307832
